Laboratory results from patent US6521620B1, “Bicyclic compounds capable of inhibiting tyrosine kinases of the epidermal growth factor receptor family” (Warner-Lambert Company, priority 1994, dated 2003).
Read-outs that look alike come from different tables or passages of the source.

Assays:
[1] = tested on: NIH 3T3 mouse fibroblast line, transfected with the human EGFR gene; test: Morphology of EGF-treated NIH 3T3 fibroblasts transfected with the human EGFR gene; format: cell-based; conditions: 100 ng/mL of EGF and 5 μm of compound (FIG. 17)
Procedure: FIG. 15 is a photograph of an NIH 3T3 mouse fibroblast line, transfected with the human EGFR gene showing a normal flattened morphology;
FIG. 16 is a photograph of the same cell line treated with 100 ng/mL of EGF showing a typical spindly transformed morphology; and […]

EGF receptor = target: T1, EGF receptor (Homo sapiens, UniProt P00533); test: Inhibition of EGF-induced autophosphorylation in A431 epidermoid carcinoma cells; format: cell-based
T1 construct: EGF receptor autophosphorylation in A431 human epidermoid carcinoma; endogenous in cells; host or cells: A431 human epidermoid carcinoma cells (ATCC)
Procedure: (§1) Cells were grown to 100% confluency in 100 mm Petrie dishes (Corning). After the cells were treated for 5 minutes with either EGF (epidermal growth factor), PDGF, or bFGF (basic fibroblast growth factor) (20 ng/ml) or 1 ml of conditioned media from MDA-MB-231 cells, the media was removed and the monolayer scraped into 1 ml of ice cold lysis buffer (50 mM Hepes, pH 7.5, 150 mM NaCl, 10% glycerol, 1% triton X-100, 1 mM EDTA, 1 mM EGTA, 10 mM sodium pyrophosphate, 30 mM p-nitrophenyl phosphate, 1 mM orthovanadate, 50 mM sodium fluoride, 1 mM phenylmethylsulfonylfluoride, 10 μg/ml of aprotinin, and 10 μg/ml of leupeptin). The lysate was transferred to a microfuge tube (small centrifuge that holds 1-2 ml plastic centrifuge tubes), allowed to sit on ice 15 minutes and centrifuged 5 minutes at 10,000×g. The supernatant was transferred to a clean microfuge tube and 5 μg of antibody was added to designated samples. The tubes were rotated for 2 hours at […] after which 25 μl of protein A sepharose was added and then rotation continued for at least 2 more hours. The protein A separose was washed 5 times with 50 mM Hepes, pH 7.5, 150 mM NaCl, 10% glycerol and 0.02% sodium azide. […] The extract were transferred to a microfuge tube and heated to 100° C. for 5 minutes. […] Proteins in the gel were electrophoretically transferred to nitrocellulose and the membrane was washed once in 10 mM Tris buffer, pH 7.2, 150 mM NaCl, 0.01% Azide (TNA) and blocked overnight in TNA containing 5% bovine serum albumin and 1% ovalbumin (blocking buffer). The membrane was blotted for 2 hours with the primary antibody (1 μg/ml in blocking buffer) and then washed 2 times sequentially in TNA, TNA containing 0.05% Tween-20 and 0.05% Nonidet P-40 (commercially available detergent) and TNA.

erbB-2, 3, 4 = test: Inhibition of conditioned media-induced autophosphorylation in SK-BR-3 breast tumor cells; format: cell-based, human; conditions: SK-BR-3 cells, read-out: SKBR-3 IC50
Procedure: as §1

[2] = target: T2, Human EGF receptor tyrosine kinase (Homo sapiens, UniProt P00533); test: EGF receptor tyrosine kinase inhibition (phosphorylation of PLC-gamma 1 derived peptide); format: biochemical
T2 construct: isolated from A431 human epidermoid carcinoma cells which overexpress EGF receptor; endogenous in cells; host or cells: A431 human epidermoid carcinoma cells; purified from the lysate on wheat germ agglutinin sepharose
Procedure: Purification of Epidermal Growth Factor Receptor Tyrosine Kinase—Human EGF receptor tyrosine kinase was isolated from A431 human epidermoid carcinoma cells which overexpress EGF receptor by the following methods. Cells were grown in roller bottles in 50% Delbuco's Modified Eagle and 50% HAM F-12 nutrient media (Gibco) containing 10% fetal calf serum. Approximately 10^9 cells were lysed in two volumes of buffer containing 20 mM 2-(4N-[2-hydroxyethyl]piperazin-1-yl)ethanesulfonic acid (hepes), pH 7.4, 5 mM ethylene glycol bis(2-aminoethyl ether) N,N,N′,N′-tetraacetic acid, 1% Triton X-100, 10% glycerol, 0.1 mM sodium orthovanadate, 5 mM sodium fluoride, 4 mM pyrophosphate, 4 mM benzamide, 1 mM dithiothreitol, 80 μg/mL aprotinin, 40 μg/mL leupeptin and 1 mM phenylmethylsulfonyl fluoride. After centrifugation at 25,000×g for 10 minutes, the supernatant was equilibrated for 2 h at 4° C. with 10 mL of wheat germ agglutinin sepharose that was previously equilibrated with 50 mM Hepes, […], 0.1% Triton X-100 and 150 mM NaCl, pH 7.5, (equilibration buffer). Contaminating proteins were washed from the resin with 1 M NaCl in equilibration buffer, and the enzyme was eluted with 0.5 M N-acetyl-1-D-glucosamine in equilibration buffer, followed by 1 mM urea. The enzyme was eluted with 0.1 mg/ml EGF.
The reaction was terminated by the addition of 2 mL of […] phosphoric acid and passed through a 2.5 cm phosphocellulose filter disc to bind the peptide. The filter was washed five times with 75 mM phosphoric acid and placed in a vial along with 5 mL of scintillation fluid (Ready gel Beckman).

p39^c-jun = test: Growth factor mediated expression of p39 c-jun in Swiss 3T3 (Western blot); format: cell-based, mouse
Procedure: Monoclonal antibodies raised to the PDGF ([…]) receptor or phosphotyrosine were from Upstate Biotechnology, Inc., Lake Placid, N.Y. Anti-pp39^jun (antibody to the transcription factor c-jun, which is a 39 kDalton phosphoprotein) and anti-EGF receptor antibodies were from Oncogene Science, Uniondale, N.Y.
Cells were grown to 100% confluency in 100 mm Petrie dishes (Corning). After the cells were treated for 5 minutes with either EGF (epidermal growth factor), PDGF, or bFGF (basic fibroblast growth factor) (20 ng/ml) or 1 ml of conditioned media from MDA-MB-231 cells, the media was removed and the monolayer scraped into 1 ml of ice cold lysis buffer (50 mM Hepes, pH 7.5, 150 mM NaCl, 10% glycerol, 1% triton X-100, 1 mM EDTA, 1 mM EGTA, 10 mM sodium pyrophosphate, 30 mM p-nitrophenyl phosphate, 1 mM orthovanadate, 50 mM sodium fluoride, 1 mM phenylmethylsulfonylfluoride, 10 μg/ml of aprotinin, and 10 μg/ml of leupeptin). The lysate was transferred to a microfuge tube (small centrifuge that holds 1-2 ml plastic centrifuge tubes), allowed to sit on ice 15 minutes and centrifuged 5 minutes at 10,000×g. The supernatant was transferred to a clean microfuge tube and 5 μg of antibody was added to designated samples. The tubes were rotated for 2 hours at […] after which 25 μl of protein A sepharose was added and then rotation continued for at least 2 more hours. The protein A separose was washed 5 times with 50 mM Hepes, pH 7.5, 150 mM NaCl, 10% glycerol and 0.02% sodium azide. The precipitates were resuspended with 30 μl of Laemlli buffer (Laemmli, […], pp. 680-685, 1970), heated to 100° C. for 5 minutes and centrifuged to obtain the supernatant. Whole cell extracts were made by scraping cells grown in the wells of 6 well plates into 0.2 ml of boiling Laemmli buffer. The extract were transferred to a microfuge tube and heated to 100° C. for 5 minutes. […]

c-jun mRNA = test: Growth factor dependent expression of c-jun mRNA in Swiss 3T3 (Northern blot); format: cell-based, mouse; conditions: Swiss 3T3 cells, EGF-stimulated (FIG. 7)
Procedure: Total cellular RNA was isolated from untreated control or treated Swiss 3T3 cells using RNAzol-B (trademark of Tel Test Inc. for a kit used to isolate RNA from tissues) and adhered to the protocol described by the manufacturer. Forty to fifty μg of RNA was loaded onto a 1% agarose gel and electrophoresis carried out for 3-4 hours at 65 volts. The RNA in the gel was transferred by capillary action to a nylon membrane (Hybond-N, Amersham). The 40 mer c-jun probe was end labeled with [^32p]ATP using […] (Promega) and purified on a G25 sephadex column according to the procedure recommended by the supplier, Oncogene Science. Hybridization was performed overnight at 65° C. (c-jun is an immediate early transcription factor; it is one of the components of AP-1 while FOS is the second component of AP-1.
Gel of Example 40 (FIG. 7) detects mRNA-for c-jun by hybridization with a specific radiolabelled RNA probe for c-jun.

[3] = Table 1, values in nM, read-out: EGF Receptor Tyrosine Kinase Inhibition IC50

T2 sequence (P00533 25-1210): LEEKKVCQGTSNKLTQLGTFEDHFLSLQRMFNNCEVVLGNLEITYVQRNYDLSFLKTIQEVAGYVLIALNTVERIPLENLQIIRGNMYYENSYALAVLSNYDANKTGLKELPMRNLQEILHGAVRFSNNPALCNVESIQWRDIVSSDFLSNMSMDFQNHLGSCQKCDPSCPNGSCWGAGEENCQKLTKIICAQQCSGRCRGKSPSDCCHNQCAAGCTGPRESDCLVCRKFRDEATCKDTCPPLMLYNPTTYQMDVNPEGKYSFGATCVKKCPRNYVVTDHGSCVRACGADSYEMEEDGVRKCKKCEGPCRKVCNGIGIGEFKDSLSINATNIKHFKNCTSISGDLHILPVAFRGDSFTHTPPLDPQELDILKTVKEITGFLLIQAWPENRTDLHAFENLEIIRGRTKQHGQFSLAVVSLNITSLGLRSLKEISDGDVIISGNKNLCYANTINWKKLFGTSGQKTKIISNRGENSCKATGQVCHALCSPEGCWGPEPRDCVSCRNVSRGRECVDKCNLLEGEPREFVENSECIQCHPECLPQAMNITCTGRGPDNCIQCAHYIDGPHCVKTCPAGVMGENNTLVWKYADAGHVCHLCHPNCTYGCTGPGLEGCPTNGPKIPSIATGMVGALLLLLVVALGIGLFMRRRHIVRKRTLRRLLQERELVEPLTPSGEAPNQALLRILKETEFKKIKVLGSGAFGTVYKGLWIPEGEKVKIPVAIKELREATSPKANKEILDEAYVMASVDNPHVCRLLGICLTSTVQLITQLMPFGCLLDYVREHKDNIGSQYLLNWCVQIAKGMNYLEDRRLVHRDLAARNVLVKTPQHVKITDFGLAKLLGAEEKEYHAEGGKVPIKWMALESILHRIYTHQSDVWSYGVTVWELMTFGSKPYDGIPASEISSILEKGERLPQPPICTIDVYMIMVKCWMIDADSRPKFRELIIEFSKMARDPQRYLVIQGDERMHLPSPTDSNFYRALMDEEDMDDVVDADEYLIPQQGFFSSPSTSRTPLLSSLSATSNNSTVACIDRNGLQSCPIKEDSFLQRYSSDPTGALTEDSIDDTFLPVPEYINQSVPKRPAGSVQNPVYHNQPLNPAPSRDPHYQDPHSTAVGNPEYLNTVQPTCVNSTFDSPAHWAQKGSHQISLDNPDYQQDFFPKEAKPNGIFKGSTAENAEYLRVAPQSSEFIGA
T1 sequence (P00533 25-1210): as above

SMILES | cell morphology [1] | IC50 (EGF receptor) | IC50 (erbB-2, 3, 4) | IC50 [2, 3] | IC50 ([2]; enzyme value repeated in the autophosphorylation table, read-out: EGFR IC50) | c-jun expression (p39 c-jun protein) (p39^c-jun; Swiss 3T3, stimulated by EGF (FIG. 8)) | c-jun expression (p39 c-jun protein) (p39^c-jun; Swiss 3T3, stimulated by PDGF (FIG. 8)) | c-jun expression (p39 c-jun protein) (p39^c-jun; Swiss 3T3, stimulated by b-FGF (FIG. 8)) | c-jun mRNA production (c-jun mRNA)
Nc1cc2ncnc(Nc3cccc(Br)c3)c2cn1 [Example 27, 7-Amino-4-(3-bromoanilino)pyrido[4,3-d]pyrimidine] | morphology reverted from the transformed type back to the normal type | 0.11 µM | ~0.8 µM | 10 nM | 10 nM | – | – | – | –
Nc1cc2ncnc(NCc3ccccc3)c2cn1 [Example 40, 7-Amino-4-benzylaminopyrido[4 3-d]pyrimidine] | – | – | – | 578 nM | – | block c-jun expression | not when stimulated by PDGF or b-FGF | not when stimulated by PDGF or b-FGF | blocks this production for EGF-stimulated cells
